# Measured values as given in patent publication US12630502B2, “Compounds, compositions and polymer films” (Fujifilm Manufacturing Europe B.V., priority 2020, dated 2026).
# Structures can show the parent of a compound that is named as a salt.
# Assay: Solubility in water at 40° C. (visual or UV-spectrometry)
# Type: physicochemical
# Details: kept overnight, 500 ppm 4OH-TEMPO
# Method: The solubility of the compounds of Formula (I) was determined visually or by UV-spectrometry. For each compound of Formula (I), three solutions were prepared at 40° C.: one solution at 30 wt %, one solution at 60 wt %, and one solution at 70 wt %. 500 ppm 4OH-TEMPO was included in all three solutions to prevent premature polymerisation. The solutions were kept in a water bath of 40° C. overnight and centrifuged prior inspection. UV spectra were recorded in a Cary™ 100 UV-visible spectrophotometer from Agilent Technologies using a 1 mm path length quartz cuvette.
row,Compound,Solubility in water at 40° C. [wt %]
1,"C=Cc1ccc(S(=O)(=O)[N-]S(=O)(=O)c2cccc(S(=O)(=O)[N-]S(=O)(=O)c3ccc(C=C)cc3)c2)cc1.[Li+].[Li+] [XL-2, 1,3-[N-(ethenylphenylsulphonyl)benzenesulphonamide], dilithium salt]",>70
2,"C=Cc1ccc(S(=O)(=O)NS(=O)(=O)c2ccc(C=C)cc2)cc1 [XL-B, Benzenesulphonamide, 4-ethenyl-N-[(4-ethenylphenyl)sulphonyl]-, lithium salt]",56
3,"C=Cc1ccc(S(=O)(=O)NS(C)(=O)=O)c(C=C)c1 [XL-D, Benzenesulphonamide, 2,4-diethenyl-N-(methylsulphonyl)-, lithium salt]",>70
4,"Divinylbenzenesulphonate, Sodium salt [DVBS-Na, reference compound]",8
